Assays:
progestin receptor = assay: Receptor binding: relative binding activity (RBA) for progestin receptor, competition with 3H-R5020 in T-47D cells; details: T-47D human breast carcinoma cells; ratio of concentrations causing 50% displacement of 3H-R5020; percentage of reference standard R-5020
Procedure: Receptor Binding. The affinity of the compounds for hormone receptors was determined by standard procedures similar to those that have been described, inter alia, by Wagner et al., Proc. Natl. Acad. Sci., 93, 8739-8744 (1996) for COS-1 cells. The human breast carcinoma (T-47D) cell line was used to assess RBA for progestin receptor. The cell line used was obtained from ATCC (American Type Culture Collection) and stored frozen at -135° C. until a week before the assays were conducted. The cells were thawed and cultured to achieve the desired cell number (5 to 7 days on average). […] After incubation overnight, medium was removed, the cells were washed and solubilized and radioactivity was measured by liquid scintillation spectromctry. Nonspecific binding was determined by incubation with an excess of unlabeled R5020 and subtracted from total binding to calculate specific binding. […]
The percentage of specifically bound ^3 H-R5020 for each concentration tested was calculated and binding curves were generated by plotting the percentage of specifically bound ^3 H-R-5020 versus the concentration of the competitor. The relative binding activity (RBA) of the test compounds, relative to the reference standard (R5020) as well as the internal standard, was determined from the ratio of concentrations causing 50% displacement for each unknown and standard, and expressed as a percentage value. […]

[1] = test system: estrogen-primed, progesterone-stimulated immature female rabbits; assay: In vivo antiprogestational activity, uterine endometrial effects scored according to McPhail; design: species or system rabbit; details: oral
Procedure: In vivo Test. Antiprogestational activity was determined in vivo by dose-response studies in estrogen-primed, progesterone-stimulated immature female rabbits and results were scored according to McPhail (McPhail, J. Physiol., 83: 146 (1934)). These are standard procedures well-known to those skilled in the art. For determining antiprogestational (antagonist) activity, the test compound was given orally together with subcutaneous administration of progesterone. It was tested orally at 0.5, 1 and 2 mg total dose in estrogenprimed immature female rabbits that were simultaneously given subcutaneous progesterone. The rabbits, weighing about 1.5 kg, were primed with estrogen one a day for 6 days and then treated once a day for 5 days with 0.8 mg total dose of progesterone--i.e.160 μg/day--while at the same time giving the test compound orally once a day in a vehicle of 10% ethanol/sesame oil (0.5 mL volume). Necropsy was performed one day after the last dose. Uterine endometrial effects were scored according to McPhail and potency was evaluated by statistical comparison with the standard compound
17α-acetoxy-11β-[4-(N,N-dimethylamino)phenyl]-19-norpregna-4,9-diene-3,20-dione.

[2] = from C. E. Cook et al, Human Reproduction, 9, Supplement 1, 32-39, June 1994; cited from earlier work

Structure (SMILES) | RBA (relative binding activity) relative to R-5020 (progestin receptor) [%] | antiprogestational potency relative to the standard compound ([1]; once a day for 5 days with subcutaneous progesterone, McPhail score, standard = 17α-acetoxy-11β-[4-(N,N-dimethylamino)phenyl]-19-norpregna-4,9-diene-3,20-dione) [fold] | antiprogestational potency relative to mifepristone ([1]; worked out from 5-fold versus standard and standard 3-fold versus mifepristone) [fold] | antiprogestational activity (in words) ([1]; estrogen-primed, progesterone-stimulated immature female rabbits) | antiprogestational potency relative to mifepristone [2]
CC#C[C@]1(C(C)=O)CC[C@H]2[C@@H]3CCC4=CC(=O)CCC4=C3[C@@H](c3ccc(N(C)C)cc3)C[C@@]21C [A-1, 11β-[4-(N,N-Dimethylamino)phenyl]-17α-(1-propynyl)-19-norpregna-4,9-diene-3,20-dione] | 313 | 5 | ≤ 15 |  | 
CC#C[C@]1(C(C)=O)CC[C@H]2[C@@H]3CCC4=CC(=O)CCC4=C3[C@@H](c3ccc(C(C)=O)cc3)C[C@@]21C [A-16, 11β-(4-Acetylphenyl)-17α-(1-propynyl)-19-norpregna-4,9-diene-3,20-dione] | 439 |  |  | had antiprogestational activity | 
CC(=O)O[C@]1(C(C)=O)CC[C@H]2[C@@H]3CCC4=CC(=O)CCC4=C3[C@@H](c3ccc(N(C)C)cc3)C[C@@]21C [standard compound, 17α-acetoxy-11β-[4-(N,N-dimethylamino)phenyl]-19-norpregna-4,9-diene-3,20-dione] |  |  |  |  | approximately 3 fold

Source: patent publication US6172052A, “17β-acyl-17α-propynyl-11β-arylsteroids and their derivatives having agonist or antagonist hormonal properties” (Research Triangle Institute, priority 1998, dated 2001)
